Tests used:
[1] = test system: type I collagen; assay: Type I collagen expression in TGF-β1-induced NHLF, western blotting (2-1); assay type: cell-based, human; conditions: uninduced group = 1, TGF-β1-only group = 3.61
Experimental: Normal Human lung fibroblasts (NHLF) were seeded into 6 cm culture dishes at a density of 2×10^5 cells/dish, comprising a control group and three experimental groups (4 dishes in total). The cells were cultured until the next day, and then the mediums were removed. Each group was respectively treated under the following conditions to conduct follow-up experiments: • (1) Positive control group: cells were cultured in a FGM-2 medium containing 1% serum for 36 hours; • (2) Negative control group: cells were cultured in a FGM-2 medium containing 1% serum and TGF-β1 (5 ng/ml) for 36 hours; • (3) Low-dose group: cells were firstly cultured in a FGM-2 medium containing 1% serum and TGF-β1 (5 ng/ml) for 12 hours, and then compound (1) was added into the medium to provide a final concentration of 15 μg/ml; thereafter, the cells were cultured for another 24 hours; and • (4) High-dose group: cells were firstly cultured in a FGM-2 medium containing 1% serum and TGF-β1 (5 ng/ml) for 12 hours, and then compound (1) was added into the medium to provide a final concentration of 25 μg/ml; thereafter, the cells were cultured for another 24 hours.
Thereafter, the proteins in the cells of each group were extracted, and the expressions of type I collagen in the NHLF cells of each group were measured with western blotting, wherein the β-actin served as the internal control. […]

[2] = test system: BMP-7 protein; assay: BMP-7 protein expression in NHLF, western blotting (3-1); assay type: cell-based, human
Experimental: Normal Human lung fibroblasts (NHLF) were seeded into 6 cm culture dishes at a density of 2×10^5 cells/dish, comprising a control group and six experimental groups (7 dishes in total). The cells were cultured until the next day, and then the mediums were removed. Each group was respectively treated under the following conditions to conduct follow-up experiments: • (1) Control group: cells were cultured in a FGM-2 medium containing 10% serum for 36 hours; • (2) Group i: cells were cultured in a FGM-2 medium containing 1% serum for 36 hours; • (3) Group ii: cells were firstly cultured in a FGM-2 medium containing 1% serum for 12 hours, and then compound (1) was added into the medium to provide a final concentration of 15 μg/ml; thereafter, the cells were cultured for another 24 hours; • (4) Group iii: cells were firstly cultured in a FGM-2 medium containing 1% serum for 12 hours, and then compound (1) was added into the medium to provide a final concentration of 25 μg/ml; thereafter, the cells were cultured for another 24 hours; • (5) Group iv: cells were cultured in a FGM-2 medium containing 1% serum and TGF-β1 (5 ng/ml) for 36 hours; • (6) Group v: cells were firstly cultured in a FGM-2 medium containing 1% serum and TGF-β1 (5 ng/ml) for 12 hours, and then compound (1) was added into the medium to provide a final concentration of 15 μg/ml; thereafter, the cells were cultured for another 24 hours; and • (7) Group vi: cells were firstly cultured in a FGM-2 medium containing 1% serum and TGF-β1 (5 ng/ml) for 12 hours, and then compound (1) was added into the medium to provide a final concentration of 25 μg/ml; thereafter, the cells were cultured for another 24 hours.
Thereafter, the proteins in the cells of each group were extracted, and the expressions of BMP-7 protein, TGF-β protein and α-SMA protein in the NHLF cells of each group were measured with western blotting, wherein the β-actin served as the internal control. The results of the control group served as the basis for calculating the relative expression levels of the other groups.

[3] = test system: IL-β; assay: IL-β mRNA in mouse pulmonary tissue, RT-PCR; assay type: in vivo, mice; conditions: Bleomycin sulfate, normal control = 1, oil group = 2.34
From the text: 24 C57B/L6 mice (age: four weeks) were separated into four groups (6 mice in each group). […]
Then, for another portion of ground samples of each group, the total RNAs were extracted using an RNeasy Mini Kit. The QuantiTect Reverse Transcription Kit was used to conduct reverse transcription on the total RNA to obtain the cDNA. […]

CCCC=C1OC(=O)c2ccccc21 [compound (1)] was tested, and the “Relative expression level of the type I collagen (fold)” value ([1]; High-dose group: TGF-β1 5 ng/ml 12 h, then compound (1) 25 μg/ml 24 h) was 1.83 fold, the “Relative expression level of the type I collagen (fold)” value ([1]; Low-dose group: TGF-β1 5 ng/ml 12 h, then compound (1) 15 μg/ml 24 h) was 3.56 fold and the “Relative expression level (fold) BMP-7 protein” value ([2]; Group ii: 1% serum 12 h, then compound (1) 15 μg/ml 24 h, no TGF-β1, 10% serum control = 1, 1% serum group i = 1) was 0.91 fold. The “Relative expression level (fold) BMP-7 protein” value ([2]; Group iii: 1% serum 12 h, then compound (1) 25 μg/ml 24 h, no TGF-β1, 10% serum control = 1, 1% serum group i = 1) was 0.81 fold, the “Relative expression level (fold) BMP-7 protein” value ([2]; Group v: 1% serum + TGF-β1 5 ng/ml 12 h, then compound (1) 15 μg/ml 24 h, 10% serum control = 1, TGF-β1-only group iv = 0.82) was 0.76 fold and the “Relative expression level (fold) BMP-7 protein” value ([2]; Group vi: 1% serum + TGF-β1 5 ng/ml 12 h, then compound (1) 25 μg/ml 24 h, 10% serum control = 1, TGF-β1-only group iv = 0.82) was 1.07 fold. The “Relative expression level (fold) IL-β” value ([3]; High-dose group: mRNA in pulmonary tissue, compound (1) 50 mg/kg-body weight orally every day for 30 days) was 0.52 fold and the “Relative expression level (fold) IL-β” value ([3]; Low-dose group: mRNA in pulmonary tissue, compound (1) 10 mg/kg-body weight orally every day for 30 days) was 1.02 fold.

Reference: US20170333391A1, “METHOD FOR DELAYING THE ONSET OF PULMONARY FIBROSIS OR TREATING PULMONARY FIBROSIS” (EVERFRONT BIOTECH INC., priority 2016, published 2017)
